In US20120214846A1, “HEXAHYDROCYCLOPENTYL[F]INDAZOLE PYRIDYL ETHANOLS AND DERIVATIVES THEREOF AS SELECTIVE GLUCOCORTICOID RECEPTOR MODULATORS” (MERCK SHARP & DOHME CORP, priority 2009, published 2012):
Where two headings read alike, the source gives them in different places.

Target: T1, GR (Homo sapiens, UniProt P04150)
T1 sequence (P04150 1-777): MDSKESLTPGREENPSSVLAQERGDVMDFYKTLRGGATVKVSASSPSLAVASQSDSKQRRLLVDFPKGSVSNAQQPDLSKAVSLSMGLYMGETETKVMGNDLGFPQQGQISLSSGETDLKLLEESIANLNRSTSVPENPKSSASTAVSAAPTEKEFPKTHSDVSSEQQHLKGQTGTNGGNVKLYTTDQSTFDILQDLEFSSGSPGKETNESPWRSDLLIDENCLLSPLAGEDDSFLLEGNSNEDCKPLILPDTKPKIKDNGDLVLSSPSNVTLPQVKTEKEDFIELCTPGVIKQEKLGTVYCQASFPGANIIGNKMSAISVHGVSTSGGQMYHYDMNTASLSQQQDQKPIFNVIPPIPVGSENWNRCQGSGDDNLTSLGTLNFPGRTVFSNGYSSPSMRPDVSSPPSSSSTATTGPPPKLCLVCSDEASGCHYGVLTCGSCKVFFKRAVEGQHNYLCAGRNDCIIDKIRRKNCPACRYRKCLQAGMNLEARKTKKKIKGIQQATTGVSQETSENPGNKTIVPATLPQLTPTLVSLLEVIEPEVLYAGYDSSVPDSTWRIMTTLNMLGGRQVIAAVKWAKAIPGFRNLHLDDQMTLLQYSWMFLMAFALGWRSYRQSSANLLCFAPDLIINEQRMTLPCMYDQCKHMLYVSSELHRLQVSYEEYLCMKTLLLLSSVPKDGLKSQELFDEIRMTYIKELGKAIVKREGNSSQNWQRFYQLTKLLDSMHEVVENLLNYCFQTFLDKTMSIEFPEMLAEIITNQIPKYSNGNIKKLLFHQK
Assay: GR Ligand Binding Assay (GR BIND), HeLa cell lysate, 3H-DEX
Parameters: endogenous in cells; host or cells: HeLa (ATCC) cell lysate supernatant
Protocol: Binding Buffer: TEGM (10 mM Tris-HCl, 1 mM EDTA, 10% glycerol, 1 mM beta-mecaptoethanol, 10 mM Sodium Molybdate, pH 7.2)
Phenol red-free Trypsin-EDTA is diluted in the same PBS 1:10. The cell layers are rinsed with 1× Trypsin, extra Trypsin is poured out, and the cell layers are incubated at 37° C. for ˜2 min. The flask is tapped and checked for signs of cell detachment. Once the cells begin to slide off the flask, the complete media is added. The cells are counted at this point, then diluted to the appropriate concentration and split into flasks or dishes for further culturing (Usually 1:3 to 1:6 dilution).
The cell pellet is washed twice with TEGM (10 mM Tris-HCl, 1 mM EDTA, 10% glycerol, 1 mM beta-mercaptoethanol, 10 mM Sodium Molybdate, pH 7.2). […] The cell suspension is snap frozen in liquid nitrogen or ethanol/dry ice bath and transferred to −80° C. freezer on dry ice. Before setting up the binding assay, the frozen samples are left on ice-water to just thaw (˜1 hr). Then the samples are centrifuged at 12,500 g to 20,000 g for 30 min at 4° C. The supernatant is used to set-up assay right away. If using 50 μL of supernatant, the test compound can be prepared in 50 μL of the TEGM buffer.
1×TEGM buffer is prepared, and the isotope-containing assay mixture is prepared in the following order: EtOH (2% final concentration in reaction), 3H-DEX (Amersham Biosciences) and 1×TEGM. [e.g. For 100 samples, 200 μL (100×2) of EtOH+4.25 μL of 1:10 3H-Dex stock+2300 μL (100×23) 1×TEGM]. The compound is serially diluted, e.g., if starting final conc. is 1 μM, and the compound is in 25 μL of solution, for duplicate samples, 75 μL of 4×1 μM solution is made and 3 μL of 100 μM is added to 72 μL of buffer, and 1:5 serial dilution.
25 μL of 3H-DEX (6 nM) trace and 25 μl, compound solution are first mixed together, followed by addition of 50 μL receptor solution. The reaction is gently mixed, spun briefly at about 200 rpm and incubated at 4° C. overnight. 100 μL of 50% HAP slurry is prepared and added to the incubated reaction which is then vortexed and incubated on ice for 5 to 10 minutes. The reaction mixture is vortexed twice more to resuspend HAP while incubating reaction. The samples in 96-well format are then washed in wash buffer using The FilterMate™ Universal Harvester plate washer (Packard). The washing process transfers HAP pellet containing ligand-bound expressed receptor to Unifilter-96 GF/B filter plate (Packard). The HAP pellet on the filter plate is incubated with 50 μL of MICROSCINT (Packard) scintillint for 30 minutes before being counted on the TopCount microscintillation counter (Packard). IC50s are calculated using DEX as a reference.

[1] = HeLa cell lysate, 3H-DEX, read-out: GR BIND Ki
[2] = Table 4, literature compounds, read-out: GR BIND

Compound	Ki [1] [nM]	Ki [2] [nM]
Cc1cccnc1C(O)C[C@]1(O)CCC2=Cc3c(cnn3-c3ccc(F)cc3)C[C@@]21C (single isomer, unassigned) [Example 1a]	6.7	
Cc1cccnc1C(O)C[C@]1(O)CCC2=Cc3c(cnn3-c3ccc(F)cc3)C[C@@]21C (single isomer, unassigned) [Example 1b]	3.9	
C[C@]12Cc3cnn(-c4ccc(F)cc4)c3C=C1CC[C@@]2(O)CC(O)c1ccccn1 (single isomer, unassigned) [Example 2a]	11.7	
C[C@]12Cc3cnn(-c4ccc(F)cc4)c3C=C1CC[C@@]2(O)CC(O)c1ccccn1 (single isomer, unassigned) [Example 2b]	6.4	
C[C@]12Cc3cnn(-c4ccc(F)cc4)c3C=C1CC[C@@]2(O)CC(O)c1cc(C(F)(F)F)ccn1 (single isomer, unassigned) [Example 5a]	2.6	
C[C@]12Cc3cnn(-c4ccc(F)cc4)c3C=C1CC[C@@]2(O)CC(O)c1cc(C(F)(F)F)ccn1 (single isomer, unassigned) [Example 5b]	4.3	
C[C@]12Cc3cnn(-c4ccc(F)cc4)c3C=C1CC[C@@]2(O)CC(O)c1ccc(F)cn1 (single isomer, unassigned) [Example 7a]	10.8	
C[C@]12Cc3cnn(-c4ccc(F)cc4)c3C=C1CC[C@@]2(O)CC(O)c1ccc(F)cn1 (single isomer, unassigned) [Example 7b]	4.8	
C[C@]12Cc3cnn(-c4ccc(F)cc4)c3C=C1CC[C@@]2(O)CC(O)c1cc(Cl)ccn1 (single isomer, unassigned) [Example 8a]	5	
C[C@]12Cc3cnn(-c4ccc(F)cc4)c3C=C1CC[C@@]2(O)CC(O)c1cc(Cl)ccn1 (single isomer, unassigned) [Example 8b]	2.1	
C[C@]12Cc3cnn(-c4ccc(F)cc4)c3C=C1CC[C@@]2(O)CC(O)c1cc(Br)ccn1 (single isomer, unassigned) [Example 10a]	3.4	
C[C@]12Cc3cnn(-c4ccc(F)cc4)c3C=C1CC[C@@]2(O)CC(O)c1cc(Br)ccn1 (single isomer, unassigned) [Example 10b]	1.7	
C[C@]12Cc3cnn(-c4ccc(F)cc4)c3C=C1CC[C@@]2(O)C#Cc1ccccc1 [Ex. 1 WO 04/075840 A2, reference compound]		1.18
C[C@]12Cc3cnn(-c4ccc(F)cc4)c3C=C1CCC[C@@H]2[C@@H](O)Cc1ccccc1 [Ex. 22 WO 03/086294 A2, reference compound]		1.26
C[C@]12Cc3cnn(-c4ccc(F)cc4)c3C=C1CCC[C@@H]2[C@@H](O)CCc1ccccc1 [Ex. 30 WO 03/086294 A2, reference compound]		1.21
C[C@]12Cc3cnn(-c4ccc(F)cc4)c3C=C1CCC[C@@H]2[C@@H](O)c1ccccc1 [Ex. 35 WO 03/86294 A2, reference compound]		1.17
CO[C@@]1(CCc2ccccc2Cl)CCC2=Cc3c(cnn3-c3ccc(F)cc3)C[C@@]21C [Ex. 103 WO 04/075840 A2, reference compound]		0.23
COc1ccnc(C(O)C[C@]2(O)CCC3=Cc4c(cnn4-c4ccc(F)cc4)C[C@@]32C)c1 (stereo partly drawn) [Example 3, (4αS,5R)-1-(4-fluorophenyl)-5-[2-hydroxy-2-(4-methoxypyridin-2-yl)ethyl]-4α-methyl-1,4,4α,5,6,7-hexahydrocyclopenta[f]indazol-5-ol]	4.4	
C[C@]12Cc3cnn(-c4ccc(F)cc4)c3C=C1CC[C@@]2(O)CC(O)c1ncccc1F (stereo partly drawn) [Example 4, (4αS,5R)-1-(4-fluorophenyl)-5-[2-(3-fluoropyridin-2-yl)-2-hydroxyethyl]-4α-methyl-1,4,4α,5,6,7-hexahydrocyclopenta[f]indazol-5-ol]	7.2	
C[C@]12Cc3cnn(-c4ccc(F)cc4)c3C=C1CC[C@@]2(O)CC(O)c1ccc(C(F)(F)F)cn1 (stereo partly drawn) [Example 6, (4αS,5R)-1-(4-fluorophenyl)-5-{2-hydroxy-2-[5-(trifluoromethyl)pyridin-2-yl]ethyl}-4α-methyl-1,4,4α,5,6,7-hexahydrocyclopenta[f]indazol-5-ol]	2.7	
C[C@]12Cc3cnn(-c4ccc(F)cc4)c3C=C1CC[C@@]2(O)CC(O)c1cc(C#N)ccn1 (stereo partly drawn) [Example 9, 2-{2-[(4αS,5R)-1-(4-fluorophenyl)-5-hydroxy-4α-methyl-1,4,4α,5,6,7-hexahydrocyclopenta[f]indazol-5-yl]-1-hydroxyethyl}pyridine-4-carbonitrile]	2.1	
Cc1ccnc(C(O)C[C@]2(O)CCC3=Cc4c(cnn4-c4ccc(F)cc4)C[C@@]32C)c1 (stereo partly drawn) [Example 11, (4αS,5R)-1-(4-fluorophenyl)-5-[2-hydroxy-2-(4-methylpyridin-2-yl)ethyl]-4α-methyl-1,4,4α,5,6,7-hexahydrocyclopenta[f]indazol-5-ol]	3.9	
